Data reported in patent US5977373A, “Thiadiazolyl and oxadiazolyl phenyl oxazolidinone antibacterial agents” (Pharmacia & Upjohn Company, priority 1998, dated 1999).
Values after ≈ are worked out from the molar mass of the structure shown.

How the values were obtained:
Format in all cases: cell-based
[1] = tested on: S. Aureus UC ® 9213; assay: In vitro minimum inhibitory concentration (MIC) by agar dilution, gram-positive bacteria (Table 1); details: Staphylococcus aureus, UC9213
Description: (§1) The oxazolidinone antibacterial agents of this invention have useful activity against a variety of microorganisms. The in vitro activity of compounds of this invention can be assessed by standard testing procedures such as the determination of minimum inhibitory concentration (MIC) by agar dilution as described in "Methods for Dilution Antimicrobial Susceptibility Tests for Bacteria That Grow Aerobically" (MFT) published January 1983 by the National Committee for Clinical Laboratory Standards, 771 East Lancaster Avenue, Villanova, Pa. 19084, USA. The activity of selected compounds of this invention against Staphylococcus aureus and Streptococcus pneumoniae are shown in Table 1.

[2] = tested on: S. pneumoniae UC ® 9912; assay: as above; details: Streptococcus pneumoniae, UC9912
Description: as §1

[3] = tested on: HI 30063; assay: MIC for a gram negative bacterial strain (Table 2); details: gram negative bacterial strain HI 30063

Compound	MIC [1]	MIC [2]	MIC [3]
CC(=O)NC[C@H]1CN(c2ccc(-c3nnc(C#N)s3)c(F)c2)C(=O)O1 [Example 1, (S)-N-[[3-[4-(5-Cyano-1,3,4-thiadiazol-2-yl)-3-fluorophenyl]-2-oxo-5-oxazolidinyl]methyl]acetamide]	0.5 µg/mL (≈ 1.38 µM)	< 0.125 µg/mL	2 µg/mL (≈ 5.53 µM)
CC(=O)NC[C@H]1CN(c2ccc(-c3nnc(C)s3)c(F)c2)C(=O)O1 [Example 3, (S)-N-[[3-[3-Fluoro-4-(5-methyl-1,3,4-thiadiazol-2-yl)phenyl]-2-oxo-5-oxazolidinyl]methyl]acetamide]	1 µg/mL (≈ 2.85 µM)	< 0.125 µg/mL	2 µg/mL (≈ 5.71 µM)
CCc1nnc(-c2ccc(N3C[C@H](CNC(C)=O)OC3=O)cc2F)s1 [Example 4, (S)-N-[[3-[4-(5-Ethyl-1,3,4-thiadiazol-2-yl)-3-fluorophenyl]-2-oxo-5-oxazolidinyl]methyl]acetamide]	1 µg/mL (≈ 2.74 µM)	0.25 µg/mL (≈ 0.686 µM)	4 µg/mL (≈ 11 µM)
CC(=O)NC[C@H]1CN(c2ccc(-c3nnc(CN)s3)c(F)c2)C(=O)O1 [Example 6, (S)-N-[[3-[4-[5-(Aminomethyl)-1,3,4-thiadiazol-2-yl]-3-fluorophenyl]-2-oxo-5-oxazolidinyl]methyl]acetamide]	8 µg/mL (≈ 21.9 µM)	< 0.125 µg/mL	2 µg/mL (≈ 5.47 µM)
CC(=O)NC[C@H]1CN(c2ccc(-c3nnc(CNS(C)(=O)=O)s3)c(F)c2)C(=O)O1 [Example 7, (S)-N-[[3-[3-Fluoro-4-[5-[[(methylsulfonyl)amino]methyl]-1,3,4-thiadiazol-2-yl]phenyl]-2-oxo-5-oxazolidinyl]methyl]acetamide]	4 µg/mL (≈ 9.02 µM)	< 0.125 µg/mL	2 µg/mL (≈ 4.51 µM)
CC(=O)NC[C@H]1CN(c2ccc(-c3nnc(CF)s3)c(F)c2)C(=O)O1 [Example 8, (S)-N-[[3-[3-Fluoro-4-(5-fluoromethyl-1,3,4-thiadiazol-2-yl)phenyl]-2-oxo-5-oxazolidinyl]methyl]acetamide]	1 µg/mL (≈ 2.71 µM)	0.25 µg/mL (≈ 0.679 µM)	4 µg/mL (≈ 10.9 µM)
CC(=O)NC[C@H]1CN(c2ccc(-c3nncs3)c(F)c2)C(=O)O1 [Example 9, (S)-N-[[3-[3-Fluoro-4-(1,3,4-thiadiazol-2-yl)phenyl]-2-oxo-5-oxazolidinyl]methyl]acetamide]	1 µg/mL (≈ 2.97 µM)	0.25 µg/mL (≈ 0.743 µM)	4 µg/mL (≈ 11.9 µM)
CC(=O)NC[C@H]1CN(c2ccc(-c3nnc(COC(C)=O)s3)c(F)c2)C(=O)O1 [Example 10, (S)-N-[[3-[4-(5-Acetoxymethyl-1,3,4-thiadiazol-2-yl)-3-fluorophenyl]-2-oxo-5-oxazolidinyl]methyl]acetamide]	1 µg/mL (≈ 2.45 µM)	< 0.125 µg/mL	4 µg/mL (≈ 9.79 µM)
CC(=O)NC[C@H]1CN(c2ccc(-c3nnc(CO)s3)c(F)c2)C(=O)O1 [Example 11, (S)-N-[[3-[3-Fluoro-4-(5-hydroxymethyl-1,3,4-thiadiazol-2-yl)phenyl]-2-oxo-5-oxazolidinyl]methyl]acetamide]	1 µg/mL (≈ 2.73 µM)	< 0.125 µg/mL	4 µg/mL (≈ 10.9 µM)
CC(=O)NC[C@H]1CN(c2ccc(-c3nnc(CC#N)s3)c(F)c2)C(=O)O1 [Example 13, (S)-N-[[3-[4-[5-(Cyanomethyl)-1,3,4-thiadiazol-2-yl]-3-fluorophenyl]-2-oxo-5-oxazolidinyl]methyl]acetamide]	2 µg/mL (≈ 5.33 µM)	0.25 µg/mL (≈ 0.666 µM)	4 µg/mL (≈ 10.7 µM)
CC(=O)NC[C@H]1CN(c2ccc(-c3nnc(CC(N)=O)s3)c(F)c2)C(=O)O1 [Example 14, (S)-5-[4-[5-[(Acetylamino)methyl]-2-oxo-3-oxazolidinyl]-2-fluorophenyl]-1,3,4-thiadiazole-2-acetamide]	4 µg/mL (≈ 10.2 µM)	< 0.125 µg/mL	4 µg/mL (≈ 10.2 µM)
CC(=O)CCc1nnc(-c2ccc(N3C[C@H](CNC(C)=O)OC3=O)cc2F)s1 [Example 16, (S)-N-[[3-[3-Fluoro-4-[5-(3-oxobutyl)-1,3,4-thiadiazol-2-yl]phenyl]-2-oxo-5-oxazolidinyl]methyl]acetamide]	1 µg/mL (≈ 2.46 µM)	< 0.125 µg/mL	4 µg/mL (≈ 9.84 µM)
CC(=O)NC[C@H]1CN(c2ccc(-c3nnc(CCC#N)s3)c(F)c2)C(=O)O1 [Example 20, (S)-N-[[3-[4-[5-(2-Cyanoethyl)-1,3,4-thiadiazol-2-yl]-3-fluorophenyl]-2-oxo-5-oxazolidinyl]methyl]acetamide]	0.5 µg/mL (≈ 1.28 µM)	< 0.125 µg/mL	2 µg/mL (≈ 5.14 µM)
C/C=C/c1nnc(-c2ccc(N3C[C@H](CNC(C)=O)OC3=O)cc2F)s1 [Example 43, (S)-N-[[3-[3-Fluoro-4-[5-(1-propenyl)-1,3,4-thiadiazol-2-yl]phenyl]-2-oxo-5-oxazolidinyl]methyl]acetamide]	2 µg/mL (≈ 5.31 µM)	0.5 µg/mL (≈ 1.33 µM)	–
CC(=O)NC[C@H]1CN(c2ccc(-c3nnc(CCN)s3)c(F)c2)C(=O)O1 [Example 44, (S)-N-[[3-[4-[5-(2-Aminoethyl)-1,3,4-thiadiazol-2-yl]-3-fluorophenyl]-2-oxo-5-oxazolidinyl]methyl]acetamide]	> 16 µg/mL	0.25 µg/mL (≈ 0.659 µM)	–
CC(=O)NCCc1nnc(-c2ccc(N3C[C@H](CNC(C)=O)OC3=O)cc2F)s1 [Example 45, (S)-N-[[3-[4-[5-[2-(Acetylamino)ethyl]-1,3,4-thiadiazol-2-yl]-3-fluorophenyl]-2-oxo-5-oxazolidinyl]methyl]acetamide]	16 µg/mL (≈ 38 µM)	0.5 µg/mL (≈ 1.19 µM)	–

Compound	MIC [1]	MIC [2]	MIC [3]
CC(=O)NC[C@H]1CN(c2ccc(-c3nnc(CCNS(C)(=O)=O)s3)c(F)c2)C(=O)O1 [Example 46, (S)-N-[[3-[3-Fluoro-4-[5-[2-[(methylsulfonyl)amino]ethyl]-1,3,4-thiadiazol-2-yl]phenyl]-2-oxo-5-oxazolidinyl]methyl]acetamide]	16 µg/mL (≈ 35 µM)	0.5 µg/mL (≈ 1.09 µM)	–
CC(=O)NC[C@H]1CN(c2ccc(-c3nnc(C(C)C)s3)c(F)c2)C(=O)O1 [Example 48, (S)-N-[[3-[3-Fluoro-4-[5-(1-methylethyl)-1,3,4-thiadiazol-2-yl]phenyl]-2-oxo-5-oxazolidinyl]methyl]acetamide]	1 µg/mL (≈ 2.64 µM)	0.25 µg/mL (≈ 0.661 µM)	–
CC(=O)NCc1nnc(-c2ccc(N3C[C@H](CNC(C)=O)OC3=O)cc2F)s1 [Example 49, (S)-N-[[5-[4-[5-[(Acetylamino)methyl]-2-oxo-3-oxazolidinyl]-2-fluorophenyl]-1,3,4-thiadiazol-2-yl]methyl]acetamide]	16 µg/mL (≈ 39.3 µM)	0.25 µg/mL (≈ 0.614 µM)	–
CC(=O)NC[C@H]1CN(c2ccc(-c3nnc(CCCN)s3)c(F)c2)C(=O)O1 [Example 57, (S)-N-[[3-[4-[5-(3-Aminopropyl)-1,3,4-thiadiazol-2-yl]-3-fluorophenyl]-2-oxo-5-oxazolidinyl]methyl]acetamide]	16 µg/mL (≈ 40.7 µM)	0.5 µg/mL (≈ 1.27 µM)	–
CC(=O)NCCCc1nnc(-c2ccc(N3C[C@H](CNC(C)=O)OC3=O)cc2F)s1 [Example 58, (S)-N-[3-[5-[4-[5-[(Acetylamino)methyl]-2-oxo-3-oxazolidinyl]-2-fluorophenyl]-1,3,4-thiadiazol-2-yl]propyl]acetamide]	8 µg/mL (≈ 18.4 µM)	0.25 µg/mL (≈ 0.574 µM)	–
CC(=O)NC[C@H]1CN(c2ccc(-c3nnc(C(C)=O)s3)c(F)c2)C(=O)O1 [Example 59, (S)-N-[[3-[4-(5-Acetyl-1,3,4-thiadiazol-2-yl)-3-fluorophenyl]-2-oxo-5-oxazolidinyl]methyl]acetamide]	2 µg/mL (≈ 5.29 µM)	0.5 µg/mL (≈ 1.32 µM)	–
CC(=O)NC[C@H]1CN(c2ccc(-c3nnc(CCCCl)s3)c(F)c2)C(=O)O1 [Example 60, (S)-N-[[3-[4-[5-(3-Chloropropyl)-1,3,4-thiadiazol-2-yl]-3-fluorophenyl]-2-oxo-5-oxazolidinyl]methyl]acetamide]	2 µg/mL (≈ 4.84 µM)	0.5 µg/mL (≈ 1.21 µM)	–
CC(=O)NC[C@H]1CN(c2ccc(-c3nnc(S(C)(=O)=O)s3)c(F)c2)C(=O)O1 [Example 62, (S)-N-[[3-[3-Fluoro-4-[5-(methylsulfonyl)-1,3,4-thiadiazol-2-yl]phenyl]-2-oxo-5-oxazolidinyl]methyl]acetamide]	2 µg/mL (≈ 4.83 µM)	0.5 µg/mL (≈ 1.21 µM)	–
CON=C(C)CCc1nnc(-c2ccc(N3C[C@H](CNC(C)=O)OC3=O)cc2F)s1 [Example 65, (S)-N-[[3-[3-Fluoro-4-[5-[3-(methoxyimino)butyl]-1,3,4-thiadiazol-2-yl]phenyl]-2-oxo-5-oxazolidinyl]methyl]acetamide]	8 µg/mL (≈ 18.4 µM)	2 µg/mL (≈ 4.59 µM)	–
CC(=O)NC[C@H]1CN(c2ccc(-c3nnc(CNC(=O)COC(C)=O)s3)c(F)c2)C(=O)O1 [Example 66]	16 µg/mL (≈ 34.4 µM)	< 0.5 µg/mL	–
CC(=O)NC[C@H]1CN(c2ccc(-c3nnc(CNC(=O)CO)s3)c(F)c2)C(=O)O1 [Example 67]	16 µg/mL (≈ 37.8 µM)	< 0.5 µg/mL	–
CC(=O)NC[C@H]1CN(c2ccc(-c3nnc(NC(=O)COC(C)=O)s3)c(F)c2)C(=O)O1 [Example 68, (S)-N-[5-[4-[5-[(Acetylamino)methyl]-2-oxo-3-oxazolidinyl]-2-fluorophenyl]-1,3,4-thiadiazol-2-yl]-2-(acetyloxy)acetamide]	8 µg/mL (≈ 17.7 µM)	2 µg/mL (≈ 4.43 µM)	–
CC(=O)NC[C@H]1CN(c2ccc(-c3nnc(CS(C)(=O)=O)s3)c(F)c2)C(=O)O1 [Example 69, (S)-N-[[3-[3-Fluoro-4-[5-[(methylsulfonyl)methyl]-1,3,4-thiadiazol-2-yl]phenyl]-2-oxo-5-oxazolidinyl]methyl]acetamide]	4 µg/mL (≈ 9.34 µM)	< 0.5 µg/mL	–
CCC(=O)NC[C@H]1CN(c2ccc(-c3nnc(CCOC)s3)c(F)c2)C(=O)O1 [Example 72, (S)-N-[[3-[3-Fluoro-4-[5-(2-methoxyethyl)-1,3,4-thiadiazol-2-yl]phenyl]-2-oxo-5-oxazolidinyl]methyl]propanamide]	4 µg/mL (≈ 9.79 µM)	0.25 µg/mL (≈ 0.612 µM)	–
COCCc1nnc(-c2ccc(N3C[C@H](CNC(C)=O)OC3=O)cc2F)s1 [Example 73, (S)-N-[[3-[3-Fluoro-4-[5-(2-methoxyethyl)-1,3,4-thiadiazol-2-yl]phenyl]-2-oxo-5-oxazolidinyl]methyl]acetamide]	2 µg/mL (≈ 5.07 µM)	< 0.5 µg/mL	–
